Experiments:
Assay in all cases: relative viability (nuclei count vs DMSO), 5 days (fraction); higher = more cells survive
Everolimus + Trametinib = compound: CO[C@H]1C[C@@H]2CC[C@@H](C)[C@@](O)(O2)C(=O)C(=O)N2CCCC[C@H]2C(=O)O[C@H]([C@H](C)C[C@@H]2CC[C@@H](OCCO)[C@H](OC)C2)CC(=O)[C@H](C)/C=C(\C)[C@@H](O)[C@@H](OC)C(=O)[C@H](C)C[C@H](C)/C=C/C=C/C=C/1C [Everolimus] + CC(=O)Nc1cccc(-n2c(=O)n(C3CC3)c(=O)c3c(Nc4ccc(I)cc4F)n(C)c(=O)c(C)c32)c1 [Trametinib] (partner 0.02 µM)
Summary of the method: (§1)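 Lung cancer cell lines in 1536-well plates were dosed by pin tool the day after seeding, either with one drug alone or with a fixed anchor-drug dose plus five library-drug doses (not always all listed) in √10 steps. After 5 days, cells were fixed and their nuclei stained in one step (final 0.05% Triton X-100, 1% formaldehyde, 1 ug/ml Hoechst), then counted on 4× images. Relative viability is the nuclei count in treated wells divided by that in vehicle wells. Values are medians of duplicate plates.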

Everolimus + Bortezomib = compound: CO[C@H]1C[C@@H]2CC[C@@H](C)[C@@](O)(O2)C(=O)C(=O)N2CCCC[C@H]2C(=O)O[C@H]([C@H](C)C[C@@H]2CC[C@@H](OCCO)[C@H](OC)C2)CC(=O)[C@H](C)/C=C(\C)[C@@H](O)[C@@H](OC)C(=O)[C@H](C)C[C@H](C)/C=C/C=C/C=C/1C [Everolimus] + CC(C)C[C@H](NC(=O)[C@H](Cc1ccccc1)NC(=O)c1cnccn1)B(O)O [Bortezomib] (partner 0.002 µM)
Summary of the method: as §1

Everolimus + Pictilisib = compound: CO[C@H]1C[C@@H]2CC[C@@H](C)[C@@](O)(O2)C(=O)C(=O)N2CCCC[C@H]2C(=O)O[C@H]([C@H](C)C[C@@H]2CC[C@@H](OCCO)[C@H](OC)C2)CC(=O)[C@H](C)/C=C(\C)[C@@H](O)[C@@H](OC)C(=O)[C@H](C)C[C@H](C)/C=C/C=C/C=C/1C [Everolimus] + CS(=O)(=O)N1CCN(Cc2cc3nc(-c4cccc5[nH]ncc45)nc(N4CCOCC4)c3s2)CC1 [Pictilisib] (partner 1 µM)
Summary of the method: as §1

Everolimus + Olaparib = compound: CO[C@H]1C[C@@H]2CC[C@@H](C)[C@@](O)(O2)C(=O)C(=O)N2CCCC[C@H]2C(=O)O[C@H]([C@H](C)C[C@@H]2CC[C@@H](OCCO)[C@H](OC)C2)CC(=O)[C@H](C)/C=C(\C)[C@@H](O)[C@@H](OC)C(=O)[C@H](C)C[C@H](C)/C=C/C=C/C=C/1C [Everolimus] + O=C(c1cc(Cc2n[nH]c(=O)c3ccccc23)ccc1F)N1CCN(C(=O)C2CC2)CC1 [Olaparib] (partner 8 µM)
Summary of the method: as §1

NCI-H23
relative viability (Everolimus + Trametinib; first compound 0.01 µM): 0.248 | relative viability (Everolimus + Trametinib; first compound 0.03162 µM): 0.204 | relative viability (Everolimus + Trametinib; first compound 0.1 µM): 0.218 | relative viability (Everolimus + Trametinib; first compound 0.3162 µM): 0.252 | relative viability (Everolimus + Trametinib; first compound 1 µM): 0.216 | relative viability (Everolimus + Bortezomib; first compound 0.01 µM): 0.497 | relative viability (Everolimus + Bortezomib; first compound 0.03162 µM): 0.471 | relative viability (Everolimus + Bortezomib; first compound 0.1 µM): 0.334 | relative viability (Everolimus + Bortezomib; first compound 0.3162 µM): 0.565 | relative viability (Everolimus + Bortezomib; first compound 1 µM): 0.555 | relative viability (Everolimus + Pictilisib; first compound 0.01 µM): 0.334 | relative viability (Everolimus + Pictilisib; first compound 0.03162 µM): 0.268 | relative viability (Everolimus + Pictilisib; first compound 0.1 µM): 0.216 | relative viability (Everolimus + Pictilisib; first compound 0.3162 µM): 0.312 | relative viability (Everolimus + Pictilisib; first compound 1 µM): 0.344 | relative viability (Everolimus + Olaparib; first compound 0.01 µM): 0.261 | relative viability (Everolimus + Olaparib; first compound 0.03162 µM): 0.219 | relative viability (Everolimus + Olaparib; first compound 0.1 µM): 0.267 | relative viability (Everolimus + Olaparib; first compound 0.3162 µM): 0.221 | relative viability (Everolimus + Olaparib; first compound 1 µM): 0.22

NCI-H322M
relative viability (Everolimus + Trametinib; first compound 0.01 µM): 0.474 | relative viability (Everolimus + Trametinib; first compound 0.03162 µM): 0.504 | relative viability (Everolimus + Trametinib; first compound 0.1 µM): 0.495 | relative viability (Everolimus + Trametinib; first compound 0.3162 µM): 0.463 | relative viability (Everolimus + Trametinib; first compound 1 µM): 0.484 | relative viability (Everolimus + Bortezomib; first compound 0.01 µM): 0.974 | relative viability (Everolimus + Bortezomib; first compound 0.03162 µM): 0.995 | relative viability (Everolimus + Bortezomib; first compound 0.1 µM): 1.01 | relative viability (Everolimus + Bortezomib; first compound 0.3162 µM): 0.939 | relative viability (Everolimus + Bortezomib; first compound 1 µM): 0.948 | relative viability (Everolimus + Pictilisib; first compound 0.01 µM): 0.445 | relative viability (Everolimus + Pictilisib; first compound 0.03162 µM): 0.445 | relative viability (Everolimus + Pictilisib; first compound 0.1 µM): 0.352 | relative viability (Everolimus + Pictilisib; first compound 0.3162 µM): 0.429 | relative viability (Everolimus + Pictilisib; first compound 1 µM): 0.397 | relative viability (Everolimus + Olaparib; first compound 0.01 µM): 0.723 | relative viability (Everolimus + Olaparib; first compound 0.03162 µM): 0.686 | relative viability (Everolimus + Olaparib; first compound 0.1 µM): 0.742 | relative viability (Everolimus + Olaparib; first compound 0.3162 µM): 0.704 | relative viability (Everolimus + Olaparib; first compound 1 µM): 0.73

NCI-H441
relative viability (Everolimus + Trametinib; first compound 0.01 µM): 0.373 | relative viability (Everolimus + Trametinib; first compound 0.03162 µM): 0.306 | relative viability (Everolimus + Trametinib; first compound 0.1 µM): 0.327 | relative viability (Everolimus + Trametinib; first compound 0.3162 µM): 0.357 | relative viability (Everolimus + Trametinib; first compound 1 µM): 0.29 | relative viability (Everolimus + Bortezomib; first compound 0.01 µM): 0.364 | relative viability (Everolimus + Bortezomib; first compound 0.03162 µM): 0.497 | relative viability (Everolimus + Bortezomib; first compound 0.1 µM): 0.504 | relative viability (Everolimus + Bortezomib; first compound 0.3162 µM): 0.457 | relative viability (Everolimus + Bortezomib; first compound 1 µM): 0.506 | relative viability (Everolimus + Pictilisib; first compound 0.01 µM): 0.272 | relative viability (Everolimus + Pictilisib; first compound 0.03162 µM): 0.358 | relative viability (Everolimus + Pictilisib; first compound 0.1 µM): 0.296 | relative viability (Everolimus + Pictilisib; first compound 0.3162 µM): 0.282 | relative viability (Everolimus + Pictilisib; first compound 1 µM): 0.331 | relative viability (Everolimus + Olaparib; first compound 0.01 µM): 0.517 | relative viability (Everolimus + Olaparib; first compound 0.03162 µM): 0.598 | relative viability (Everolimus + Olaparib; first compound 0.1 µM): 0.489 | relative viability (Everolimus + Olaparib; first compound 0.3162 µM): 0.657 | relative viability (Everolimus + Olaparib; first compound 1 µM): 0.484

NCI-H460
relative viability (Everolimus + Trametinib; first compound 0.01 µM): 0.082 | relative viability (Everolimus + Trametinib; first compound 0.03162 µM): 0.101 | relative viability (Everolimus + Trametinib; first compound 0.1 µM): 0.114 | relative viability (Everolimus + Trametinib; first compound 0.3162 µM): 0.0573 | relative viability (Everolimus + Trametinib; first compound 1 µM): 0.124 | relative viability (Everolimus + Bortezomib; first compound 0.01 µM): 0.827 | relative viability (Everolimus + Bortezomib; first compound 0.03162 µM): 0.982 | relative viability (Everolimus + Bortezomib; first compound 0.1 µM): 0.672 | relative viability (Everolimus + Bortezomib; first compound 0.3162 µM): 0.881 | relative viability (Everolimus + Bortezomib; first compound 1 µM): 1.08 | relative viability (Everolimus + Pictilisib; first compound 0.01 µM): 0.305 | relative viability (Everolimus + Pictilisib; first compound 0.03162 µM): 0.441 | relative viability (Everolimus + Pictilisib; first compound 0.1 µM): 0.27 | relative viability (Everolimus + Pictilisib; first compound 0.3162 µM): 0.299 | relative viability (Everolimus + Pictilisib; first compound 1 µM): 0.319 | relative viability (Everolimus + Olaparib; first compound 0.01 µM): 0.44 | relative viability (Everolimus + Olaparib; first compound 0.03162 µM): 0.407 | relative viability (Everolimus + Olaparib; first compound 0.1 µM): 0.4 | relative viability (Everolimus + Olaparib; first compound 0.3162 µM): 0.403 | relative viability (Everolimus + Olaparib; first compound 1 µM): 0.422

NCI-H520
relative viability (Everolimus + Trametinib; first compound 0.01 µM): 0.292 | relative viability (Everolimus + Trametinib; first compound 0.03162 µM): 0.286 | relative viability (Everolimus + Trametinib; first compound 0.1 µM): 0.245 | relative viability (Everolimus + Trametinib; first compound 0.3162 µM): 0.249 | relative viability (Everolimus + Trametinib; first compound 1 µM): 0.256 | relative viability (Everolimus + Bortezomib; first compound 0.01 µM): 0.327 | relative viability (Everolimus + Bortezomib; first compound 0.03162 µM): 0.282 | relative viability (Everolimus + Bortezomib; first compound 0.1 µM): 0.243 | relative viability (Everolimus + Bortezomib; first compound 0.3162 µM): 0.195 | relative viability (Everolimus + Bortezomib; first compound 1 µM): 0.276 | relative viability (Everolimus + Pictilisib; first compound 0.01 µM): 0.186 | relative viability (Everolimus + Pictilisib; first compound 0.03162 µM): 0.197 | relative viability (Everolimus + Pictilisib; first compound 0.1 µM): 0.204 | relative viability (Everolimus + Pictilisib; first compound 0.3162 µM): 0.185 | relative viability (Everolimus + Pictilisib; first compound 1 µM): 0.165 | relative viability (Everolimus + Olaparib; first compound 0.01 µM): 0.29 | relative viability (Everolimus + Olaparib; first compound 0.03162 µM): 0.209 | relative viability (Everolimus + Olaparib; first compound 0.1 µM): 0.296 | relative viability (Everolimus + Olaparib; first compound 0.3162 µM): 0.18 | relative viability (Everolimus + Olaparib; first compound 1 µM): 0.312

NCI-H596
relative viability (Everolimus + Trametinib; first compound 0.01 µM): 0.613 | relative viability (Everolimus + Trametinib; first compound 0.03162 µM): 0.507 | relative viability (Everolimus + Trametinib; first compound 0.1 µM): 0.497 | relative viability (Everolimus + Trametinib; first compound 0.3162 µM): 0.525 | relative viability (Everolimus + Trametinib; first compound 1 µM): 0.575 | relative viability (Everolimus + Bortezomib; first compound 0.01 µM): 0.813 | relative viability (Everolimus + Bortezomib; first compound 0.03162 µM): 0.716 | relative viability (Everolimus + Bortezomib; first compound 0.1 µM): 0.658 | relative viability (Everolimus + Bortezomib; first compound 0.3162 µM): 0.612 | relative viability (Everolimus + Bortezomib; first compound 1 µM): 0.589 | relative viability (Everolimus + Pictilisib; first compound 0.01 µM): 0.313 | relative viability (Everolimus + Pictilisib; first compound 0.03162 µM): 0.337 | relative viability (Everolimus + Pictilisib; first compound 0.1 µM): 0.348 | relative viability (Everolimus + Pictilisib; first compound 0.3162 µM): 0.354 | relative viability (Everolimus + Pictilisib; first compound 1 µM): 0.333 | relative viability (Everolimus + Olaparib; first compound 0.01 µM): 0.642 | relative viability (Everolimus + Olaparib; first compound 0.03162 µM): 0.475 | relative viability (Everolimus + Olaparib; first compound 0.1 µM): 0.618 | relative viability (Everolimus + Olaparib; first compound 0.3162 µM): 0.515 | relative viability (Everolimus + Olaparib; first compound 1 µM): 0.506

NCI-H647
relative viability (Everolimus + Trametinib; first compound 0.01 µM): 0.258 | relative viability (Everolimus + Trametinib; first compound 0.03162 µM): 0.318 | relative viability (Everolimus + Trametinib; first compound 0.1 µM): 0.288 | relative viability (Everolimus + Trametinib; first compound 0.3162 µM): 0.252 | relative viability (Everolimus + Trametinib; first compound 1 µM): 0.293 | relative viability (Everolimus + Bortezomib; first compound 0.01 µM): 0.635 | relative viability (Everolimus + Bortezomib; first compound 0.03162 µM): 0.59 | relative viability (Everolimus + Bortezomib; first compound 0.1 µM): 0.601 | relative viability (Everolimus + Bortezomib; first compound 0.3162 µM): 0.635 | relative viability (Everolimus + Bortezomib; first compound 1 µM): 0.693 | relative viability (Everolimus + Pictilisib; first compound 0.01 µM): 0.261 | relative viability (Everolimus + Pictilisib; first compound 0.03162 µM): 0.299 | relative viability (Everolimus + Pictilisib; first compound 0.1 µM): 0.215 | relative viability (Everolimus + Pictilisib; first compound 0.3162 µM): 0.213 | relative viability (Everolimus + Pictilisib; first compound 1 µM): 0.256 | relative viability (Everolimus + Olaparib; first compound 0.01 µM): 0.268 | relative viability (Everolimus + Olaparib; first compound 0.03162 µM): 0.303 | relative viability (Everolimus + Olaparib; first compound 0.1 µM): 0.199 | relative viability (Everolimus + Olaparib; first compound 0.3162 µM): 0.176 | relative viability (Everolimus + Olaparib; first compound 1 µM): 0.368
